Measured values as given in ChEMBL document CHEMBL3885861, “Open TG-GATES”.

Species: Rattus norvegicus
Assay: Open TG-GATES - Regimen: Daily Repeat
Assay type: toxicity, organism-based, Sprague-Dawley
Set-up: regimen Daily Repeat, gender Male, age 6 weeks
Conditions: in vivo, po, 300 mg/kg, route gavage, dose level High; for APTT / Bas / Eos / Fbg / Hb / Ht / Lym / MCH / MCHC / MCV / Mono / Neu / PT / Plat / RBC / Ret / WBC: tissue Blood; for KIDNEY_L / KIDNEY_R / KIDNEY_TOTAL: tissue Kidney; for LIVER: tissue Liver; for A/G / ALP / ALT / AST / BUN / CRE / Ca / Cl / DBIL / GLC / IP / K / LDH / Na / PL / RALB / TBIL / TC / TG / TP / gamma-GTP: tissue Plasma

Work on `CC(=O)Nc1ccc2c(c1)Cc1ccccc1-2` [2-ACETYLAMINOFLUORENE] yielded a TERMINAL_BW (72 h, time 3 day) of 193.8 g, an APTT (72 h, time 3 day) of 20.9 s and a Bas (72 h, time 3 day) of 0.8%. The Eos (72 h, time 3 day) was 0.8%, the Fbg (72 h, time 3 day) was 229.4 mg/dL and the Hb (72 h, time 3 day) was 15.2 g/dL. The Ht (72 h, time 3 day) was 43.9%, the Lym (72 h, time 3 day) was 71.4% and the MCH (72 h, time 3 day) was 21.2 pg. For the same compound, the MCHC (72 h, time 3 day) was 34.6%, the MCV (72 h, time 3 day) was 61.2 fL and the Mono (72 h, time 3 day) was 3%. The Neu (72 h, time 3 day) was 23.2%, the PT (72 h, time 3 day) was 12.8 s and the Plat (72 h, time 3 day) was 140.3 x10_4/uL. The RBC (72 h, time 3 day) was 716.4 x10_4/ul, the Ret (72 h, time 3 day) was 2.9% and the WBC (72 h, time 3 day) was 127.6 x10_2/uL. For the same compound, the KIDNEY_L (72 h, time 3 day) was 0.9 g, the KIDNEY_R (72 h, time 3 day) was 0.9 g and the KIDNEY_TOTAL (72 h, time 3 day) was 1.9 g. The LIVER (72 h, time 3 day) was 9.4 g, the A/G (72 h, time 3 day) was 1.5 and the ALP (72 h, time 3 day) was 595 IU/L. The ALT (72 h, time 3 day) was 24 IU/L, the AST (72 h, time 3 day) was 72.2 IU/L and the BUN (72 h, time 3 day) was 10.2 mg/dL. It also gave a CRE (72 h, time 3 day) of 0.4 mg/dL, a Ca (72 h, time 3 day) of 9.9 mg/dL and a Cl (72 h, time 3 day) of 105.8 meq/L. For the same compound, the DBIL (72 h, time 3 day) was 0.096 mg/dL, the GLC (72 h, time 3 day) was 193.6 mg/dL and the IP (72 h, time 3 day) was 7.4 mg/dL. For the same compound, the K (72 h, time 3 day) was 4.3 meq/L, the LDH (72 h, time 3 day) was 281.2 IU/L and the Na (72 h, time 3 day) was 142.4 meq/L. It also gave a PL (72 h, time 3 day) of 93.2 mg/dL, an RALB (72 h, time 3 day) of 2.9 g/dL and a TBIL (72 h, time 3 day) of 0.2 mg/dL. It also gave a TC (72 h, time 3 day) of 49.2 mg/dL, a TG (72 h, time 3 day) of 52.2 mg/dL and a TP (72 h, time 3 day) of 5 g/dL. For the same compound, the gamma-GTP (72 h, time 3 day) was 1.2 IU/L, the TERMINAL_BW ([…], time 7 day) was 219.8 g and the TERMINAL_BW ([…], time 14 day) was 246.4 g. The TERMINAL_BW ([…], time 28 day) was 274 g, the APTT ([…], time 7 day) was 19.8 s and the Bas ([…], time 7 day) was 0.6%. It also gave an Eos ([…], time 7 day) of 1%, a Fbg ([…], time 7 day) of 207 mg/dL and a Hb ([…], time 7 day) of 12.9 g/dL. The Ht ([…], time 7 day) was 36%, the Lym ([…], time 7 day) was 68.2% and the MCH ([…], time 7 day) was 21.4 pg. It also gave an MCHC ([…], time 7 day) of 35.9%, an MCV ([…], time 7 day) of 59.5 fL and a Mono ([…], time 7 day) of 3%. The Neu ([…], time 7 day) was 26.4%, the PT ([…], time 7 day) was 12.4 s and the Plat ([…], time 7 day) was 184.8 x10_4/uL. The RBC ([…], time 7 day) was 605.6 x10_4/ul, the Ret ([…], time 7 day) was 4.7% and the WBC ([…], time 7 day) was 186.5 x10_2/uL. For the same compound, the APTT ([…], time 14 day) was 21.6 s, the Bas ([…], time 14 day) was 0.6% and the Eos ([…], time 14 day) was 0%. It also gave a Fbg ([…], time 14 day) of 169.6 mg/dL, a Hb ([…], time 14 day) of 13.2 g/dL and a Ht ([…], time 14 day) of 40.3%. It also gave a Lym ([…], time 14 day) of 73.2%, an MCH ([…], time 14 day) of 22.8 pg and an MCHC ([…], time 14 day) of 32.7%. For the same compound, the MCV ([…], time 14 day) was 70 fL, the Mono ([…], time 14 day) was 2.6% and the Neu ([…], time 14 day) was 23%. The PT ([…], time 14 day) was 13.5 s, the Plat ([…], time 14 day) was 163 x10_4/uL and the RBC ([…], time 14 day) was 576.8 x10_4/ul. For the same compound, the Ret ([…], time 14 day) was 14.7%, the WBC ([…], time 14 day) was 142.6 x10_2/uL and the APTT ([…], time 28 day) was 23 s. For the same compound, the Bas ([…], time 28 day) was 0%, the Eos ([…], time 28 day) was 0.4% and the Fbg ([…], time 28 day) was 142 mg/dL. The Hb ([…], time 28 day) was 13.2 g/dL, the Ht ([…], time 28 day) was 39.8% and the Lym ([…], time 28 day) was 67.6%. It also gave an MCH ([…], time 28 day) of 20.9 pg, an MCHC ([…], time 28 day) of 33.1% and an MCV ([…], time 28 day) of 63.1 fL. For the same compound, the Mono ([…], time 28 day) was 2.6%, the Neu ([…], time 28 day) was 27.8% and the PT ([…], time 28 day) was 13.3 s. The Plat ([…], time 28 day) was 134.9 x10_4/uL, the RBC ([…], time 28 day) was 632.8 x10_4/ul and the Ret ([…], time 28 day) was 10.2%. For the same compound, the WBC ([…], time 28 day) was 131.2 x10_2/uL, the KIDNEY_L ([…], time 7 day) was 1 g and the KIDNEY_R ([…], time 7 day) was 1 g. It also gave a KIDNEY_TOTAL ([…], time 7 day) of 2 g, a KIDNEY_L ([…], time 14 day) of 1.1 g and a KIDNEY_R ([…], time 14 day) of 1 g. It also gave a KIDNEY_TOTAL ([…], time 14 day) of 2.1 g, a KIDNEY_L ([…], time 28 day) of 1.2 g and a KIDNEY_R ([…], time 28 day) of 1.2 g. The KIDNEY_TOTAL ([…], time 28 day) was 2.3 g, the LIVER ([…], time 7 day) was 11.5 g and the LIVER ([…], time 14 day) was 13.3 g. For the same compound, the LIVER ([…], time 28 day) was 13.2 g, the A/G ([…], time 7 day) was 1.5 and the ALP ([…], time 7 day) was 616.8 IU/L. It also gave an ALT ([…], time 7 day) of 32 IU/L, an AST ([…], time 7 day) of 75.8 IU/L and a BUN ([…], time 7 day) of 13 mg/dL. The CRE ([…], time 7 day) was 0.5 mg/dL, the Ca ([…], time 7 day) was 10.4 mg/dL and the Cl ([…], time 7 day) was 102.8 meq/L. The DBIL ([…], time 7 day) was 0.1 mg/dL, the GLC ([…], time 7 day) was 165.8 mg/dL and the IP ([…], time 7 day) was 6.5 mg/dL. It also gave a K ([…], time 7 day) of 4 meq/L, an LDH ([…], time 7 day) of 224.2 IU/L and a Na ([…], time 7 day) of 138.4 meq/L. For the same compound, the PL ([…], time 7 day) was 113.2 mg/dL, the RALB ([…], time 7 day) was 2.8 g/dL and the TBIL ([…], time 7 day) was 0.2 mg/dL. It also gave a TC ([…], time 7 day) of 51.6 mg/dL, a TG ([…], time 7 day) of 115 mg/dL and a TP ([…], time 7 day) of 4.7 g/dL. For the same compound, the gamma-GTP ([…], time 7 day) was 1 IU/L, the A/G ([…], time 14 day) was 1.5 and the ALP ([…], time 14 day) was 611.4 IU/L. For the same compound, the ALT ([…], time 14 day) was 39.8 IU/L, the AST ([…], time 14 day) was 70.4 IU/L and the BUN ([…], time 14 day) was 13.2 mg/dL. The CRE ([…], time 14 day) was 0.5 mg/dL, the Ca ([…], time 14 day) was 9.9 mg/dL and the Cl ([…], time 14 day) was 104.8 meq/L. The DBIL ([…], time 14 day) was 0.2 mg/dL, the GLC ([…], time 14 day) was 160.6 mg/dL and the IP ([…], time 14 day) was 6.8 mg/dL. The K ([…], time 14 day) was 4.3 meq/L, the LDH ([…], time 14 day) was 190 IU/L and the Na ([…], time 14 day) was 141 meq/L. For the same compound, the PL ([…], time 14 day) was 135.4 mg/dL, the RALB ([…], time 14 day) was 2.9 g/dL and the TBIL ([…], time 14 day) was 0.3 mg/dL. It also gave a TC ([…], time 14 day) of 54.8 mg/dL, a TG ([…], time 14 day) of 154.4 mg/dL and a TP ([…], time 14 day) of 4.8 g/dL. The gamma-GTP ([…], time 14 day) was 1.2 IU/L, the A/G ([…], time 28 day) was 1.3 and the ALP ([…], time 28 day) was 649.6 IU/L. For the same compound, the ALT ([…], time 28 day) was 42.4 IU/L, the AST ([…], time 28 day) was 72.6 IU/L and the BUN ([…], time 28 day) was 14 mg/dL. For the same compound, the CRE ([…], time 28 day) was 0.5 mg/dL, the Ca ([…], time 28 day) was 9.8 mg/dL and the Cl ([…], time 28 day) was 104.8 meq/L. It also gave a DBIL ([…], time 28 day) of 0.3 mg/dL, a GLC ([…], time 28 day) of 162.2 mg/dL and an IP ([…], time 28 day) of 6.6 mg/dL. It also gave a K ([…], time 28 day) of 3.7 meq/L, an LDH ([…], time 28 day) of 169.8 IU/L and a Na ([…], time 28 day) of 140.4 meq/L. For the same compound, the PL ([…], time 28 day) was 145.6 mg/dL, the RALB ([…], time 28 day) was 2.7 g/dL and the TBIL ([…], time 28 day) was 0.4 mg/dL. For the same compound, the TC ([…], time 28 day) was 59.4 mg/dL, the TG ([…], time 28 day) was 134.8 mg/dL and the TP ([…], time 28 day) was 4.8 g/dL. It also gave a gamma-GTP ([…], time 28 day) of 4.8 IU/L.
